This experiment deals with T1, vesicular nucleotide transporter (VNUT) (Homo sapiens, UniProt Q9BYT1).
T1 sequence (Q9BYT1 1-436): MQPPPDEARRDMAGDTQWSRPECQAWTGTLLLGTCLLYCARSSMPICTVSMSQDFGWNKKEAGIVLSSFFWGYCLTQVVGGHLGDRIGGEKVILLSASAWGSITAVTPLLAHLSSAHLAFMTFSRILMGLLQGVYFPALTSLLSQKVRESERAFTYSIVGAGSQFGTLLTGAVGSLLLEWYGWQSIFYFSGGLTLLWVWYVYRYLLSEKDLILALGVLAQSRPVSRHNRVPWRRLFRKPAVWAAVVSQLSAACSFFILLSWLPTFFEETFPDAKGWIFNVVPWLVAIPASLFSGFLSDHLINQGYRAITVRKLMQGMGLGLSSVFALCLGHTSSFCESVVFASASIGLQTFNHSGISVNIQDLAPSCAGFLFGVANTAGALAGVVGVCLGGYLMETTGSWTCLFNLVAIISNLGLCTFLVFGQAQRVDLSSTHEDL
The experiment is described as follows: [3H]-ATP uptake in proteoliposomes with purified human VNUT. The format is biochemical.

Broadly, the IC50 is the concentration at which inhibition is half-maximal. A higher IC50 goes with lower potency.

SMILES strings stand for the structures.

For the molecule `CC/C=C\C/C=C\C/C=C\C/C=C\C/C=C\CCCC(=O)O` [EPA, eicosapentaenoic acid], the IC50 came to 67 nM.

These data come from PMC9335333 (Proceedings of the National Academy of Sciences of the …, 2022).
